Results: ChEMBL document CHEMBL1201862, “PubChem BioAssay data set” (2004)
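1) Cells in 96-well plates. 2) Compound, 48 h, 5 concentrations. 3) Linear interpolation between surrounding doses. 4) Unreached endpoint = highest concentration. Here, GI50 denotes the concentration required for 50% inhibition of growth.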 Active and inactive are the calls of the source. Rule as the data show it: active = GI50 up to about 1.1 µM and inactive = higher.

What was measured:
Experiment in all cases: NCI tumour cell line growth inhibition, 48 h
PC-3 = test system: PC-3
HCT-15 = test system: HCT-15
SK-MEL-5 = test system: SK-MEL-5
MDA-MB-231 = test system: MDA-MB-231
CCRF-CEM = test system: CCRF-CEM
Malme-3M = test system: Malme-3M
MOLT-4 = test system: MOLT-4
EKVX = test system: EKVX
U-251 = test system: U-251
OVCAR-4 = test system: OVCAR-4
HCC 2998 = test system: HCC 2998
MDA-N = test system: MDA-N
NCI-H226 = test system: NCI-H226
UACC-62 = test system: UACC-62
MCF7 = test system: MCF7
NCI-H522 = test system: NCI-H522
KM12 = test system: KM12
A549 = test system: A549
SK-MEL-28 = test system: SK-MEL-28
RPMI-8226 = test system: RPMI-8226
A498 = test system: A498
SW-620 = test system: SW-620
SNB-19 = test system: SNB-19
OVCAR-8 = test system: OVCAR-8
LOX IMVI = test system: LOX IMVI
ACHN = test system: ACHN
MDA-MB-435 = test system: MDA-MB-435
TK-10 = test system: TK-10
UACC-257 = test system: UACC-257
SK-OV-3 = test system: SK-OV-3
DU-145 = test system: DU-145
786-0 = test system: 786-0
SNB-75 = test system: SNB-75
M14 = test system: M14
UO-31 = test system: UO-31
SF-295 = test system: SF-295
BT-549 = test system: BT-549
T47D = test system: T47D
COLO 205 = test system: COLO 205
HOP-92 = test system: HOP-92
CAKI-1 = test system: CAKI-1
Hs-578T = test system: Hs-578T
OVCAR-3 = test system: OVCAR-3
SF-268 = test system: SF-268
HCT-116 = test system: HCT-116
SF-539 = test system: SF-539
HOP-62 = test system: HOP-62
NCI-H23 = test system: NCI-H23
RXF 393 = test system: RXF 393
SK-MEL-2 = test system: SK-MEL-2
NCI/ADR-RES = test system: NCI/ADR-RES
OVCAR-5 = test system: OVCAR-5
K562 = test system: K562
NCI-H460 = test system: NCI-H460
HT-29 = test system: HT-29
IGROV-1 = test system: IGROV-1
HL-60 = test system: HL-60
SN12C = test system: SN12C

N#CC1=C2Sc3ccccc3N2[C@H](c2ccccc2)[C@H]2COC(=O)[C@@H]12
GI50 (PC-3): > 100 µM (inactive)
GI50 (HCT-15): > 100 µM
GI50 (SK-MEL-5): > 100 µM (inactive)
GI50 (MDA-MB-231): > 100 µM (inactive)
GI50 (CCRF-CEM): 7.45 µM (inactive)
GI50 (Malme-3M): 16.7 µM (inactive)
GI50 (MOLT-4): 33.5 µM (inactive)
GI50 (EKVX): > 100 µM (inactive)
GI50 (U-251): 45.2 µM (inactive)
GI50 (OVCAR-4): > 100 µM (inactive)
GI50 (HCC 2998): > 100 µM (inactive)
GI50 (MDA-N): > 100 µM (inactive)
GI50 (NCI-H226): > 100 µM (inactive)
GI50 (UACC-62): 67.1 µM (inactive)
GI50 (MCF7): 31 µM (inactive)
GI50 (NCI-H522): 11.2 µM (inactive)
GI50 (KM12): 63.2 µM (inactive)
GI50 (A549): > 100 µM (inactive)
GI50 (SK-MEL-28): > 100 µM (inactive)
GI50 (RPMI-8226): 22.6 µM (inactive)
GI50 (A498): 54.8 µM (inactive)
GI50 (SW-620): 35.2 µM (inactive)
GI50 (SNB-19): > 100 µM (inactive)
GI50 (OVCAR-8): > 100 µM (inactive)
GI50 (LOX IMVI): 26.3 µM (inactive)
GI50 (ACHN): > 100 µM (inactive)
GI50 (MDA-MB-435): > 100 µM (inactive)
GI50 (TK-10): 38.9 µM (inactive)
GI50 (UACC-257): > 100 µM (inactive)
GI50 (SK-OV-3): > 100 µM (inactive)
GI50 (DU-145): > 100 µM (inactive)
GI50 (786-0): > 100 µM (inactive)
GI50 (SNB-75): 21.6 µM (inactive)
GI50 (M14): 52.4 µM (inactive)
GI50 (UO-31): > 100 µM (inactive)
GI50 (SF-295): > 100 µM (inactive)
GI50 (BT-549): 27.9 µM (inactive)
GI50 (T47D): 35.6 µM (inactive)
GI50 (COLO 205): > 100 µM (inactive)
GI50 (HOP-92): > 100 µM (inactive)
GI50 (CAKI-1): 17.5 µM (inactive)
GI50 (Hs-578T): > 100 µM (inactive)
GI50 (OVCAR-3): > 100 µM (inactive)
GI50 (SF-268): 17.1 µM (inactive)
GI50 (HCT-116): > 100 µM (inactive)
GI50 (SF-539): > 100 µM (inactive)
GI50 (HOP-62): > 100 µM (inactive)
GI50 (NCI-H23): 77.3 µM (inactive)
GI50 (RXF 393): 70.3 µM (inactive)
GI50 (SK-MEL-2): 48 µM (inactive)
GI50 (NCI/ADR-RES): > 100 µM (inactive)
GI50 (OVCAR-5): > 100 µM (inactive)

CCOC(=O)Cn1c(=O)c(C)cn(COCCO)c1=O
GI50 (PC-3): > 100 µM (inactive)
GI50 (SK-MEL-5): > 100 µM (inactive)
GI50 (MDA-MB-231): > 100 µM (inactive)
GI50 (CCRF-CEM): > 10 µM (inactive)
GI50 (K562): > 100 µM (inactive)
GI50 (Malme-3M): > 100 µM (inactive)
GI50 (MOLT-4): > 100 µM (inactive)
GI50 (NCI-H460): > 100 µM (inactive)
GI50 (EKVX): > 100 µM (inactive)
GI50 (U-251): > 100 µM (inactive)
GI50 (HT-29): > 100 µM (inactive)
GI50 (OVCAR-4): > 100 µM (inactive)
GI50 (HCC 2998): > 100 µM (inactive)
GI50 (MDA-N): > 100 µM (inactive)
GI50 (NCI-H226): 0.155 µM (active)
GI50 (MCF7): > 100 µM (inactive)
GI50 (NCI-H522): > 100 µM (inactive)
GI50 (KM12): > 100 µM (inactive)
GI50 (A549): > 100 µM (inactive)
GI50 (SK-MEL-28): > 100 µM (inactive)
GI50 (RPMI-8226): > 100 µM (inactive)
GI50 (A498): > 100 µM (inactive)
GI50 (SW-620): > 100 µM (inactive)
GI50 (SNB-19): > 100 µM (inactive)
GI50 (OVCAR-8): > 100 µM (inactive)
GI50 (LOX IMVI): > 100 µM (inactive)
GI50 (ACHN): > 100 µM (inactive)
GI50 (MDA-MB-435): > 100 µM (inactive)
GI50 (TK-10): > 100 µM (inactive)
GI50 (UACC-257): > 100 µM (inactive)
GI50 (DU-145): > 100 µM (inactive)
GI50 (SNB-75): > 100 µM (inactive)
GI50 (M14): > 100 µM (inactive)
GI50 (UO-31): > 100 µM (inactive)
GI50 (BT-549): > 100 µM (inactive)
GI50 (T47D): > 100 µM (inactive)
GI50 (COLO 205): > 100 µM (inactive)
GI50 (HOP-92): > 100 µM (inactive)
GI50 (CAKI-1): > 100 µM (inactive)
GI50 (Hs-578T): > 100 µM (inactive)
GI50 (OVCAR-3): > 100 µM (inactive)
GI50 (SF-268): > 100 µM (inactive)
GI50 (SF-539): > 100 µM (inactive)
GI50 (HOP-62): > 100 µM (inactive)
GI50 (IGROV-1): > 100 µM (inactive)
GI50 (NCI-H23): > 100 µM (inactive)
GI50 (HL-60): > 100 µM (inactive)
GI50 (RXF 393): > 100 µM (inactive)
GI50 (SK-MEL-2): > 100 µM (inactive)
GI50 (NCI/ADR-RES): > 100 µM (inactive)
GI50 (SN12C): > 100 µM (inactive)
GI50 (OVCAR-5): > 100 µM (inactive)
